# Test results taken from US20110045021A1, “SUGAR IMMUNOGENS” (United Therapeutics Corporation, priority 2007, published 2011).
# Test: Binding of human sera to a glycan microarray, measured by fluorescent anti-human antibodies
# Settings: human sera (n=10), FIG. 1
# Text: FIG. 1 provides an analysis of binding of human sera (n=10) to a glycan microarray measured by fluorescent anti-human antibodies.
# To identify carbohydrates that are naturally or inherently antigenic to the human immune system, one can screen human serum antibodies against immobilized glycans (see FIG. 1). This may reveal carbohydrates, and/or carbohydrate arrangements which are recognised as “non-self”. […] By incorporating rhamnose, or a similar antigenic mimics into the natural oligomannose structure of gp120, the inherent tolerance to the (mannose) sugars of HIV may be overcome.
row,Compound,antigenicity (human serum antibody reactivity against immobilized glycans)
1,OC[C@H]1O[C@H](O)[C@@H](O)[C@@H](O)[C@@H]1O [alpha-D-Mannose],is not
2,"C[C@H]1O[C@H](O)[C@@H](O)[C@@H](O)[C@@H]1O [alpha-D-rhamnose, 6-deoxy-alpha-D-mannose]",antigenic sugar
3,Man(α1-2)Man(α1-2)Man(α1-3)Man [D1],naturally antigenic
4,[Man(α1-2)Man(α1-6)][Man(α1-2)Man(α1-3)]Man [D2D3],naturally antigenic
